Reference: ChEMBL document CHEMBL1138368, “Synthesis of thiazolone-based sulfonamides as inhibitors of HCV NS5B polymerase” (Bioorg Med Chem Lett, 2007)

Legend:
[1] = Inhibition of HCV NS5B polymerase […]; design: species or system Hepacivirus hominis
Hepatitis C virus = experiment: Antiviral activity against HCV replicon assay; format: functional, organism-based, Hepacivirus hominis

Row | SMILES | IC50 [1] [µM] | EC50 (Hepatitis C virus) [µM]
1 | CCc1ccc(/C=C2\SC(NS(=O)(=O)c3cccs3)=NC2=O)o1 | 8 | 40
2 | CCc1ccc(/C=C2\SC(NS(=O)(=O)c3ccccc3N)=NC2=O)o1 | 11 | 27
3 | Cc1ccc(S(=O)(=O)NC2=NC(=O)C(Cc3ccco3)S2)cc1 (stereo not drawn) | 74 | 200
4 | Cc1ccc(S(=O)(=O)NC2=NC(=O)C(Cc3ccc(Br)o3)S2)cc1 (stereo not drawn) | 40 | 64
5 | CCc1ccc(CC2SC(NS(=O)(=O)c3ccc(C)cc3)=NC2=O)o1 (stereo not drawn) | 7.3 | 33
6 | CCc1ccc(/C=C2\SC(NS(=O)(=O)c3ccccc3[N+](=O)[O-])=NC2=O)o1 | 18 | 90
7 | Cc1ccc(S(=O)(=O)NC2=NC(=O)/C(=C/C=C/c3ccco3)S2)cc1 | 5 | 55
8 | Cc1ccc(S(=O)(=O)NC2=NC(=O)/C(=C/C=C/c3ccccn3)S2)cc1 | 0.6 | 35
9 | Cc1ccc(S(=O)(=O)NC2=NC(=O)/C(=C/c3ccc(-c4ccccc4)o3)S2)cc1 | 5.5 | 55
10 | Cc1ccc(S(=O)(=O)NC2=NC(=O)/C(=C/c3cccs3)S2)cc1 | 12 | 80
11 | Cc1ccc(S(=O)(=O)NC2=NC(=O)/C(=C/c3cc(C)c(Cl)s3)S2)cc1 | 10 | 200
12 | Cc1ccc(S(=O)(=O)NC2=NC(=O)/C(=C/c3ccc(-c4nc(C(C)(C)C)cs4)cc3)S2)cc1 | 4.9 | 9
13 | Cc1ccc(S(=O)(=O)NC2=NC(=O)/C(=C/c3ccc(-n4cccn4)cc3)S2)cc1 | 10 | 70
14 | Cc1ccc(S(=O)(=O)NC2=NC(=O)/C(=C/c3ccco3)S2)cc1 | 11 | 60
15 | Cc1ccc(S(=O)(=O)NC2=NC(=O)/C(=C/c3ccc(Br)o3)S2)cc1 | 2.7 | 50
16 | CCc1ccc(/C=C2\SC(NS(=O)(=O)c3ccc(C)cc3)=NC2=O)o1 | 1.4 | 25
17 | CCCCCCN(C1=NC(=O)/C(=C/c2ccc(CC)o2)S1)S(=O)(=O)c1ccc(C)cc1 | > 100 | 70
18 | CCCCCCCN(C1=NC(=O)/C(=C/c2ccc(CC)o2)S1)S(=O)(=O)c1ccc(C)cc1 | > 100 | 90
19 | Cc1ccc(C(=O)NC2=NC(=O)/C(=C/c3ccc(C)o3)S2)cc1 | 16 | 60
20 | CCc1ccc(/C=C2\SC(NS(=O)(=O)c3ccccc3NC(C)=O)=NC2=O)o1 | 34 | 200
21 | Cc1ccc(S(=O)(=O)NC2=NC(=O)/C(=C/c3ccc(C)s3)S2)cc1 | 14 | 70

Row | SMILES | IC50 [1] [µM] | EC50 (Hepatitis C virus) [µM]
22 | Cc1ccc(S(=O)(=O)NC2=NC(=O)/C(=C/c3ccc(C)o3)S2)cc1 | 11 | 
23 | CCc1ccc(/C=C2\SC(NS(=O)(=O)c3ccc([N+](=O)[O-])cc3)=NC2=O)o1 | 3.2 | 200
24 | Cc1ccc(C(=O)NC2=NC(=O)/C(=C/c3cccs3)S2)cc1 | 33 | 100
25 | CCc1ccc(/C=C2\SC(NC(=O)c3ccc(C)cc3)=NC2=O)o1 | 13 | 200
26 | Cc1ccc(S(=O)(=O)NC2=NC(=O)/C(=C/c3ccc([N+](=O)[O-])s3)S2)cc1 | 4.2 | 7
27 | Cc1ccc(C(=O)NC2=NC(=O)/C(=C/c3ccc(-c4nccs4)o3)S2)cc1 | 44 | 120
28 | Cc1ccc(C(=O)NC2=NC(=O)/C(=C/c3ccc(-c4ccc(-c5csnn5)cc4)o3)S2)cc1 | 11 | 70
29 | CCN(CC)c1ccc(/C=C2\SC(NS(=O)(=O)c3ccc(C)cc3)=NC2=O)cc1 | > 100 | 90
30 | Cc1ccc(S(=O)(=O)NC2=NC(=O)/C(=C/c3ccc(-c4csnn4)cc3)S2)cc1 | 1.4 | 20
31 | Cc1ccc(S(=O)(=O)NC2=NC(=O)/C(=C/c3ccc(-n4cncn4)cc3)S2)cc1 | 32 | 100
32 | Cc1ccc(S(=O)(=O)NC2=NC(=O)/C(=C/c3ccc(-n4ccnc4)cc3)S2)cc1 | > 100 | 60
33 | Cc1ccc(S(=O)(=O)NC2=NC(=O)/C(=C/c3ccc(N4CCCC4)cc3)S2)cc1 | 1.4 | 25
34 | CCc1ccc(/C=C2\SC(NS(=O)(=O)c3ccc(C(F)(F)F)cc3)=NC2=O)o1 | 3.2 | 30
35 | Cc1ccc(S(=O)(=O)NC2=NC(=O)C(CCCc3ccccn3)S2)cc1 (stereo not drawn) | > 100 | 180
36 | CCCCCN(C1=NC(=O)/C(=C/c2ccc(CC)o2)S1)S(=O)(=O)c1ccc(C)cc1 | > 100 | 55
37 | Cc1ccc(S(=O)(=O)NC2=NC(=O)/C(=C/c3ccc(I)o3)S2)cc1 | 2.8 | 38
38 | Cc1ccc(S(=O)(=O)NC2=NC(=O)/C(=C/c3cc(C)c(C)o3)S2)cc1 | 3.2 | 200
39 | Cc1ccc(S(=O)(=O)NC2=NC(=O)C(Cc3ccc(I)o3)S2)cc1 (stereo not drawn) | 15 | 40
40 | CCCCN(C1=NC(=O)/C(=C/c2ccc(CC)o2)S1)S(=O)(=O)c1ccc(C)cc1 | > 100 | 33
41 | Cc1ccc(S(=O)(=O)NC2=NC(=O)/C(=C/c3ccc(N4CCOCC4)cc3)S2)cc1 | 12 | 180
42 | Cc1ccc(C(=O)NC2=NC(=O)/C(=C/c3ccc(-c4[nH]cnc4C)o3)S2)cc1 | > 100 | 220
